The record followed here is patent publication US4988681A, “Phosphinic acid derivatives” (Banyu Pharmaceutical Co., Ltd., priority 1988, dated 1991).

A short description of data set [1]: Pharmacokinetic evaluation: plasma concentration in rats. Type of data set: in vivo, Male SD rats. As to conditions: plasma, rat; for AUC: trapezoidal rule; for concentration at 0.5 h: 1/2 h; for concentration at 0.25 h: 1/4 h; for concentration at 5 min: 1/12 h. On the procedure: (4) Pharmacokinetic evaluations
Male SD rats ([…]) were divided into groups each consisting of three animals. […] Furthermore, cilastatin was intravenously administered to a 14th group as a control group.
Plasma samples were taken periodically from the carotid artery through a cannula inserted into it at the points of 1/12, 1/4, 1/2, 1, 2, 4, 6, 8 and 24 hours after the administration.
The area under the curve (AUC) of the plasma concentration was determined according to the trapezoidal rule.

Data set [2] concerns the target T1, porcine kidney dehydropeptidase I (Sus scrofa, UniProt P22412).
T1 construct: Frozen porcine kidney cortex was homogenized; from tissue; host or cells: porcine kidney cortex
T1 sequence (P22412 17-409): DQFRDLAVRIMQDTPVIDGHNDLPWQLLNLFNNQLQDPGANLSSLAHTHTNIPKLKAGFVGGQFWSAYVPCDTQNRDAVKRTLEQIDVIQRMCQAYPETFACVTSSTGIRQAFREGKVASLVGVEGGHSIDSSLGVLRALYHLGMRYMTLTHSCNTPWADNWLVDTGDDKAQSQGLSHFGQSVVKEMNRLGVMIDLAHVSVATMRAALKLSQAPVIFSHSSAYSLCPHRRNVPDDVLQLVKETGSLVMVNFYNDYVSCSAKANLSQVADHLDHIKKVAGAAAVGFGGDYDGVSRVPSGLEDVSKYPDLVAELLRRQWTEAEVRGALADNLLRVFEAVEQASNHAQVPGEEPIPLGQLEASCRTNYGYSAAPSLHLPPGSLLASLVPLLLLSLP
The data set is described as follows: Inhibitory activity on porcine kidney dehydropeptidase I (DHP-I). It counts as biochemical. As to conditions: substrate glycyldehydrophenylalanine, pH 7.4, 37° C., 3 h pre-incubation; read-out: Concentration producing 50% inhibition (IC50). On the procedure:
(1) Inhibitory activity on porcine kidney dehydropeptidase I
(i) Purification of porcine dehydropeptidase I
Frozen porcine kidney cortex was homogenized. Butanol (1/4 volume) pre-cooled in a dry ice-acetone bath was added to the homogenate, and the mixture was stirred at 4° C. for 43 hours. The mixture was then dialyzed for one day and centrifuged at 3,000 g for 30 minutes. To the resulting supernatant was added ammonium sulfate. A precipitate at the salt concentration range between 50 and 75% was collected to give a crude enzyme preparation which was re-dissolved in a 50 mM MOPS buffer containing 0.5 M NaCl. The solution was charged on a cilastatin affinity column. Elution with a 50 mM MOPS buffer containing 0.5 M NaCN gave a purified enzyme preparation.
(ii) Measurement of inhibitory activity
The resulting enzyme preparation (3 mU) and an inhibitor were pre-incubatedat 37° C. for 3 hours in 2.7 ml of a 50 mM MOPS buffer (pH 7.4), and then 2.475 ml of the mixture was transferred into a cuvette. As a substrate, 25 microliters of a 5 mM glycyldehydrophenylalanine solution in a 50 mM MOPS buffer (pH 7.4) was added to start an enzymic reaction. The reaction was carried out at 37° C. in a spectrophotometer fitted with a constant-emperature device, and a decrease of the absorbance at 275 nm during a period of 5 minutes was measured. […] An IC50 value was calculated from the percent inhibition data.
One unit (U) is defined as the amount of the enzyme which hydrolyzes 1 micromole of the substrate (glycyldehydrophenylalanine) per minute at a substrate concentration of 0.05 mM at 37° C. in a 50 mM MOPS buffer (pH 7.4).

A short description of data set [3]: Effect on urinary recovery of carbapenem (imipenem) in rats. As to conditions: imipenem 10 mg/kg iv alone, no inhibitor, urine up to 8 hours, n = 3. Type of data set: in vivo, Male SD rats. On the procedure: (2) Effect on urinary recovery of carbapenem
Male SD rats (8 week-old) were grouped, three per group. Imipenem alone was intravenously administered in a dose of 10 mg/kg to a first group. […] For comparison, a combination of imipenem (10 mg/kg) and cilastatin (10 mg/kg) was intravenously administered to a fourth group.
The urinary recovery of imipenem was calculated.

Data set [4] relates to nephrotoxicity induced by imipenem. Description: Protective action on nephrotoxicity induced by imipenem in rabbits. Type of data set: in vivo, male Japanese white rabbits. As to conditions: imipenem 150 mg/kg alone. The procedure: (3) Protective action on nephrotoxicity induced by carbapenem antibiotics
Twelve male Japanese white rabbits (18 week-old; body weight 3.19-3.54 kg) were divided into three groups each consisting of 4 animals. Imipenem alone was administered in a dose of 150 mg/kg to a first group. To a second group, a combination of imipenem (150 mg/kg) and the compound No. 2 (150 mg/kg) was administered. To a third group as a control, sterilized physiological saline was administered. In all cases, the administration was effected through the auricular vein. Forty-eight hours later, a blood sample was taken from each of the animals, and the BUN and creatinine values were measured. The kidneys of the rabbits were taken and examined histopathologically.

Setting [5] is: iv 10 mg/kg (cilastatin dose not given).
Setting [6] is: iv 10 mg/kg (cilastatin dose not given), N.D.: below the detection limit.
Where [7] appears, read: iv 10 mg/kg, N.D.: below the detection limit.
The mark [8] stands for this setting: po 10 mg/kg, N.D.: below the detection limit.

In data set [1] (setting [5]), `CC1(C)CC1P(=O)(O)C/C(=C\C1CCCCC1)C(=O)O` (stereo not drawn) [Compound No. 5, (Z)-3-cyclohexyl-2-(2,2-dimethylcyclopropylhydroxyphosphinoyl)methylpropenoic acid] had an AUC of 88200 ng·h/mL, a concentration at 0.5 h of 36200 ng/mL, a concentration at 0.25 h of 49400 ng/mL and a concentration at 5 min of 51900 ng/mL. In data set [1] (po 10 mg/kg), the exposure (AUC) is 22500 ng·h/mL, the concentration at 0.5 h stood at 6400 ng/mL, the concentration at 0.25 h stood at 4700 ng/mL and the concentration at 5 min turned out to be 2500 ng/mL. For the same compound, in data set [1] (po 10 mg/kg), the concentration at 1 h was determined as 5300 ng/mL, the concentration at 2 h was 3400 ng/mL, the concentration at 4 h is 2400 ng/mL and the concentration at 6 h was 1100 ng/mL. The compound further came in with a concentration at 1 h in data set [1] (setting [6]) of 24400 ng/mL. In data set [1] (iv 10 mg/kg), the concentration at 2 h was found to be 11900 ng/mL, the concentration at 4 h worked out at 4700 ng/mL and the concentration at 8 h turned out to be 900 ng/mL. Moreover, in data set [1] (setting [7]), the concentration at 6 h was 1700 ng/mL and the concentration at 24 h was 100 ng/mL. Besides, the concentration at 8 h in data set [1] (setting [8]) stood at 300 ng/mL. Further, the IC50 in data set [2] is 8.2 nM.

Regarding `CC(C)CP(=O)(O)C/C(=C\C1CC1)C(=O)O` [Compound No. 10, (Z)-3-cyclopropyl-2-(hydroxyisobutylphosphinoyl)methylpropenoic acid], in data set [1] (setting [5]), the area under the curve (AUC) was 40600 ng·h/mL, the concentration at 0.5 h worked out at 21700 ng/mL, the concentration at 0.25 h was determined as 26500 ng/mL and the concentration at 5 min came out at 40800 ng/mL. In data set [1] (po 10 mg/kg), this compound came in with an area under the curve (AUC) of 3900 ng·h/mL, a concentration at 0.5 h of 1400 ng/mL, a concentration at 0.25 h of 1100 ng/mL and a concentration at 5 min of 500 ng/mL. For the same compound, in data set [1] (po 10 mg/kg), the concentration at 1 h came out at 1200 ng/mL, the concentration at 2 h turned out to be 800 ng/mL, the concentration at 4 h was 300 ng/mL and the concentration at 6 h came out at 200 ng/mL. The concentration at 1 h in data set [1] (setting [6]) was found to be 12800 ng/mL. In data set [1] (iv 10 mg/kg), the concentration at 2 h is 5200 ng/mL, the concentration at 4 h came to 1100 ng/mL and the concentration at 8 h turned out to be 200 ng/mL. In addition, in data set [1] (setting [7]), the concentration at 6 h turned out to be 200 ng/mL. In data set [2], the IC50 turned out to be 14 nM.

On to `CC(C)CP(=O)(O)C/C(=C\CCCSC[C@H](N)C(=O)O)C(=O)O` [Compound No. 23, (Z)-6-[(L)-2-amino-2-carboxyethyl]thio-2-(hydroxyisobutylphosphinoyl)methyl-2-hexenoic acid], for which, in data set [1] (setting [5]), the AUC amounted to 17900 ng·h/mL, the concentration at 0.5 h is 13900 ng/mL, the concentration at 0.25 h was 21000 ng/mL and the concentration at 5 min came to 28700 ng/mL. In data set [1] (setting [6]), this compound gave a concentration at 1 h of 4200 ng/mL. In data set [1] (iv 10 mg/kg), the concentration at 2 h turned out to be 900 ng/mL and the concentration at 4 h worked out at 100 ng/mL. Further, in data set [2], the IC50 was 48 nM.

On to `C[C@@H](O)[C@H]1C(=O)N2C(C(=O)O)=C(SCCN=CN)C[C@H]12` [Imipenem, reference compound], for which the “Urinary recovery of imipenem, Mean ± S.D.” value in data set [3] was 29.6 ± 4.8%. Besides, the “Necrosis of the kidney tissue, number of rabbits which necrotized versus number tested” value in data set [4] is reported as 4/4. Besides, the BUN in data set [4] (auricular vein, 48 hours, * P ≤ 0.05) amounted to 70.8 mg/100 ml. For the same compound, the “Necrosis of the kidney tissue” value in data set [4] (grade in words) is on record as “Marked”.

In data set [1] (setting [5]), `O=C(O)/C(=C/C1CCCCC1)CP(=O)(O)CC1CCCC1` [Compound No. 17, (Z)-3-cyclohexyl-2-(cyclopentylmethylhydroxyphosphinoyl)methylpropenoic acid] returned an AUC of 226000 ng·h/mL, a concentration at 0.5 h of 55000 ng/mL, a concentration at 0.25 h of 74700 ng/mL and a concentration at 5 min of 86700 ng/mL. In addition, in data set [1] (po 10 mg/kg), the AUC worked out at 18400 ng·h/mL, the concentration at 0.5 h stood at 5000 ng/mL, the concentration at 0.25 h was 4100 ng/mL and the concentration at 5 min turned out to be 500 ng/mL. In addition, in data set [1] (po 10 mg/kg), the concentration at 1 h was 5000 ng/mL, the concentration at 2 h was determined as 3200 ng/mL, the concentration at 4 h is 2100 ng/mL and the concentration at 6 h amounted to 1000 ng/mL. For the same compound, the concentration at 1 h in data set [1] (setting [6]) amounted to 38000 ng/mL. In data set [1] (iv 10 mg/kg), this compound showed a concentration at 2 h of 25200 ng/mL, a concentration at 4 h of 14800 ng/mL and a concentration at 8 h of 6400 ng/mL. In data set [1] (setting [7]), this compound had a concentration at 6 h of 10800 ng/mL and a concentration at 24 h of 500 ng/mL. The compound also gave a concentration at 8 h in data set [1] (setting [8]) of 100 ng/mL. In addition, the IC50 in data set [2] was determined as 18 nM.

As for `O=C(O)/C(=C/C1CCCCC1)CP(=O)(O)CC1CCCCC1` [Compound No. 28, (Z)-3-cyclohexyl-2-(cyclohexylmethylhydroxyphosphinoyl)methylpropenoic acid], in data set [1] (setting [5]), the AUC was determined as 82400 ng·h/mL, the concentration at 0.5 h worked out at 30400 ng/mL, the concentration at 0.25 h worked out at 40600 ng/mL and the concentration at 5 min is 58100 ng/mL. In data set [1] (po 10 mg/kg), this compound had an AUC of 19000 ng·h/mL, a concentration at 0.5 h of 3400 ng/mL, a concentration at 0.25 h of 3100 ng/mL and a concentration at 5 min of 1300 ng/mL. In data set [1] (po 10 mg/kg), the concentration at 1 h amounted to 2500 ng/mL, the concentration at 2 h came to 3000 ng/mL, the concentration at 4 h is 1900 ng/mL and the concentration at 6 h came to 1100 ng/mL. Moreover, the concentration at 1 h in data set [1] (setting [6]) was 18300 ng/mL. In data set [1] (iv 10 mg/kg), this compound had a concentration at 2 h of 11700 ng/mL, a concentration at 4 h of 4800 ng/mL and a concentration at 8 h of 1000 ng/mL. In data set [1] (setting [7]), this compound showed a concentration at 6 h of 2300 ng/mL and a concentration at 24 h of 100 ng/mL. The compound also had a concentration at 8 h in data set [1] (setting [8]) of 500 ng/mL. Further, in data set [2], the IC50 stood at 50 nM.

As a reminder, the AUC is concentration integrated over time. Low readings indicate low exposure, high ones high exposure.
